This is an account of results in patent EP1985629A1, “Pro-apoptotic molecules and therapeutic uses thereof” (UNIVERSITA DEGLI STUDI DI GENOVA, priority 2007, dated 2008).

Structures are written as SMILES. Where a SMILES comes first, the peptide text is derived from it. [ ]: non-standard residue; d: D form. Aib = CC(C)(N)C(=O)O

One data set relates to Namalwa cells. Kind of data set: Morphologic analysis of apoptosis (PI, confocal microscopy). The settings on record: PI labeled Namalwa cells; and 48 h (072RB), 48 h (Int). It is filed as cell-based, human. How it is done:
After extensive washes, samples were incubated with PI (50µg/ml in PBS) and 100 units/ml Rnase type A and 10 mM EDTA (to inactivate endogenous nucleases) for 15 min at room temperature. After three washes, cells were put on a micro-slide, covered with a coverslip and analysed with an IX81 microscope equipped with He-Neon […] laser, suitable for PI fluorescence excitation (FV500, Olympus BioSystem). 10-15 fields were analysed with 40x oil/1.35NA or 60x oil/1.40NA objectives and images acquired with the Flowview 4.2b computer program.

Data set [1] is described as follows: Circular dichroism, relative content of secondary structure elements. It is filed as physicochemical. On the set-up: key to α-Helix / β-Strands / β-Turns / Random: relative content as fraction, from CDSSTR deconvolution. As to conditions: CDSSTR deconvolution. The procedure:
Circular dichroism (CD) spectra in the far-UV region (190-260 nm) were collected on a Jasco J-715 spectropolarimeter using a 0.1 cm path-length cuvette. Temperature was kept at 25°C by a Peltier device. Peptide concentration was determined from the absorption of the aromatic residues at 280 nm.
Peptides solutions: Bim-BH3Y and Bim-BH3YA2Aib were suspended in water and potassium hydroxide was added up to complete solubilization. 072RB was dissolved in water. Concentration of stock solutions was about 0.1 mg/ml. For circular dichroism measurements, stock solutions were diluted in 10 mM potassium phosphate buffer, pH 7.
The relative content of secondary structure elements was calculated with the deconvolution program CDSSTR [31] (Table 2). […] 072RB has the highest helical content in the set examined here (0.30 α-helix percent).
(Circular dichroism is widely used to follow secondary structure.)

Data set [2] has as its system U937 and Jurkat cell lines. The data set is described as follows: Detection of mitochondrial permeability transition (DiOC6 fluorescence). It is filed as cell-based, human. As to conditions: two cell lines, 4 days, 5 and 10 µM, two independent experiments.
[3] abbreviates: relative content, 10 mM potassium phosphate buffer, pH 7, 25°C.

As for `CC[C@H](C)[C@H](NC(=O)[C@H](CCCNC(=N)N)NC(=O)[C@H](CCCNC(=N)N)NC(=O)[C@H](CC(C)C)NC(=O)[C@H](CCC(=O)O)NC(=O)[C@H](CCC(N)=O)NC(=O)C(C)(C)NC(=O)[C@@H](NC(=O)[C@H](Cc1ccc(O)cc1)NC(=O)[C@@H](NC(=O)[C@H](CCC(=O)O)NC(=O)[C@@H]1CCCN1C(=O)[C@H](CCCNC(=N)N)NC(=O)[C@H](CCSC)NC(=O)[C@@H](N)CC(=O)O)[C@@H](C)CC)[C@@H](C)CC)C(=O)NCC(=O)N[C@@H](CC(=O)O)C(=O)N[C@@H](C)C(=O)N[C@@H](Cc1ccccc1)C(=O)N[C@@H](CC(N)=O)C(=O)NC(C)(C)C(=O)N[C@@H](Cc1ccc(O)cc1)C(=O)N[C@@H](CCCCN)C(=O)N[C@@H](CCCCN)C(=O)N[C@@H](Cc1c[nH]c2ccccc12)C(=O)N[C@@H](CCCCN)C(=O)N[C@@H](CCSC)C(=O)N[C@@H](CCCNC(=N)N)C(=O)N[C@@H](CCCNC(=N)N)C(=O)N[C@@H](CC(N)=O)C(=O)N1CCC[C@H]1C(=O)N[C@@H](Cc1ccccc1)C(=O)N[C@@H](Cc1c[nH]c2ccccc12)C(=O)N[C@H](C(=O)N[C@@H](CCCCN)C(=O)N[C@H](C(=O)N[C@@H](CCC(N)=O)C(=O)N[C@@H](CCCNC(=N)N)C(N)=O)[C@@H](C)CC)[C@@H](C)CC` [Peptide 072RB] (H-DMRPEIYI[Aib]QELRRIGDAFN[Aib]YKKWKMRRNPFWIKIQR-NH2; N-terminus and C-terminus assumed), the “chromatin condensation and apoptotic body formation” value in the data set with Namalwa cells is “exhibited chromatin condensation and apoptotic body formation”. For the same compound, in data set [1], the “relative content of helices” value is recorded as 0.30 α-helix percent. In data set [1] (setting [3]), this compound came in with a Random of 0.42, a α-Helix of 0.30, a β-Strands of 0.12 and a β-Turns of 0.15. Besides, in data set [2], the “MPT (reduced DiOC6 fluorescence)” value was “clear MPT effects”.
